Measured values as given in US20190247398A1, “FORMULATIONS OF A MACROCYCLIC TRK KINASE INHIBITOR” (Array BioPharma Inc., priority 2017, published 2019).
Read-outs that look alike come from different tables or passages of the source.

Columns and labels:
[1] = acid counterion; cited from earlier work
[2] = Salt stability studies (40° C./75% RH for 1 week, XRPD); assay type: physicochemical
Experimental: Recovered salts were placed in an oven at 40° C./75% RH for 1 week, and the resultant materials were analyzed by XRPD to determine any changes to form or crystallinity.

[3] = Dynamic vapor sorption (DVS); assay type: physicochemical
Experimental: Approximately, 10 mg of sample was placed into a mesh vapor sorption balance pan and loaded into a DVS-1 dynamic vapor sorption balance by Surface Measurement Systems. The sample was subjected to a ramping profile from 40-90% relative humidity (RH) at 10% increments, maintaining the sample at each step until a stable weight had been achieved (99.5% step completion). After completion of the sorption cycle, the sample was dried using the same procedure to 0% RH and then a second sorption cycle back to 40% RH. The weight change during the sorption/desorption cycles were plotted, allowing for the hygroscopic nature of the sample to be determined. XRPD analysis was then carried out on any solid retained.

[4] = 1 week stability tests (40° C./75% RH, 80° C., ambient light; XRPD and UPLC); assay type: physicochemical
Thermodynamic solubility = assay type: physicochemical; conditions: for solubility thermodynamic at 24 h: thermodynamic from solid, ambient temperature, read-out: Concentration (thermodynamic solubility)
Experimental: Thermodynamic solubility studies were carried out as follows: 10 mg of prepared salts were suspended in pH 1, 4.5, 6.8 and un-buffered water (300 μL). The pH of the slurries was measured and adjusted accordingly using either 0.2M HCl solution or 0.2M sodium hydroxide solution. The slurries were agitated for 24 hours at ambient temperature using an incubator shaker.

[5] = Salt disproportionation studies; assay type: physicochemical; conditions: deionized water, 24 h, ambient temperature
Experimental: Salt disproportionation studies were carried out as follows: 20 mg of prepared salts were weighed into a vial and 0.5 mL of deionized water was added. The samples were then agitated for 24 h at ambient temperature. The pH of the samples was taken pre- and post-agitation. Any solids recovered were submitted for XRPD analysis to determine any changes to form.

[6] = Hydration screen (acetone/water mixtures of various water activities); assay type: physicochemical; conditions: ambient
Experimental: Hydration screen was carried out as follows: 10 mg of prepared salts were suspended in several acetone/water mixtures of various water activities (low: aw=0.281, medium: aw=0.776 and high: aw=0.919) and agitated at ambient temperatures for 24 hr. Any recovered solids were submitted for XRPD analysis to determine any changes to form.

[7] = Solvent solubility of Compound 1 free base (stepwise solvent addition to amorphous material); assay type: physicochemical; conditions: 40 °C, thermodynamic from solid, read-out: Approx. Solubility
Experimental: A solid Compound 1 was obtained as follows. A […] of solution containing about 330 mg of Compound 1 in warm 1,4-dioxane was divided between 33, 2 mL glass vials (1.5 mL in each). The solutions were frozen and freeze-dried by lyophilization overnight. The resulting material was then analyzed by XRPD to confirm mostly amorphous material.
Approximately 10 mg of amorphous Compound 1 was produced in 32×2 mL glass vials from freeze drying and 100 μL of the appropriate solvent system was added to the appropriate vial. Between each addition, the mixture was checked for dissolution and if no dissolution was apparent, the mixture was heated to about 40° C. and checked again. This procedure was continued until dissolution was observed or until 2 mL had been added (to the compound concentration of <5 mg/mL).

Question: Which “pKa 1” value [1] does the source give for `O=S(=O)(O)CCO` [2-Hydroxy ethanesulfonic acid] here?
Answer: 1.66

Question: Which “changes to form or crystallinity after stability conditions (XRPD)” value (shortened to “changes to form or crystallinity”) ([2]; salt recovered from TBME) does the source give for `C[C@@H]1CCc2ncc(F)cc2[C@H]2CCCN2c2ccn3ncc(c3n2)C(=O)N1.O=C(O)C[C@H](O)C(=O)O` [Compound 1 L-malate] here?
Answer: no change to crystallinity and form

Question: For `C[C@@H]1CCc2ncc(F)cc2[C@H]2CCCN2c2ccn3ncc(c3n2)C(=O)N1.O=S(=O)(O)c1ccccc1` [Compound 1 besylate], which “hygroscopicity by DVS (in words)” value ([3]; DVS humidity conditions) is on record?
Answer: low hygroscopicity

Question: What about the “change in crystalline form after exposure to DVS conditions (post-DVS XRPD)” value ([3]; after DVS cycle) of the same compound?
Answer: no changes in crystalline form

Question: What about the “mass uptake (DVS)” value ([3]; at 90% RH) of the same compound?
Answer: about 0.7%

Question: What about the “changes to form or crystallinity” value ([2]; salt recovered from TBME) of the same compound?
Answer: preferred orientation but no changes to form

Question: And the “changes to form or crystallinity” value ([2]; salt recovered from THF)?
Answer: an increase to crystallinity but no changes to form

Question: And the “changes to form or crystallinity” value ([2]; salt recovered from ethanol)?
Answer: a decrease in crystallinity

Question: What about the “change to form after 1 week stability test (XRPD)” value (“change to form” for short) ([4]; 40° C./75% RH) of the same compound?
Answer: a mixture of besylate salt and something else

Question: And the “change in purity after 1 week stability test (UPLC)” value (“change in purity” for short) ([4]; 80° C.)?
Answer: no change to purity

Question: And the “change to form” value ([4]; 80° C.)?
Answer: no change to form

Question: What about the “change in purity” value ([4]; ambient light) of the same compound?
Answer: no change to purity

Question: And the “change to form” value ([4]; ambient light)?
Answer: no change to form

Question: What about the solubility thermodynamic at 24 h (Thermodynamic solubility; aqueous buffer, pH 4.5 buffer) of the same compound?
Answer: 12700 µg/mL

Question: And the “thermodynamic solubility (in words)” value (Thermodynamic solubility; pH 1)?
Answer: highly soluble

Question: What about the “solids recovered after thermodynamic solubility study (XRPD)” value (shortened to “solids recovered”) (Thermodynamic solubility; pH 4.5) of the same compound?
Answer: an unknown form

Question: What about the “thermodynamic solubility (in words)” value (Thermodynamic solubility; pH 4.5) of the same compound?
Answer: moderately soluble

Question: And the “solids recovered” value (Thermodynamic solubility; pH 6.8)?
Answer: poorly crystalline free base

Question: What about the “thermodynamic solubility (in words)” value (Thermodynamic solubility; pH 6.8) of the same compound?
Answer: low solubility

Question: What about the solubility thermodynamic at 24 h (Thermodynamic solubility; pH 6.8 potassium phosphate buffer, aqueous buffer, pH 6.8 buffer) of the same compound?
Answer: 1900 µg/mL

Question: And the solubility thermodynamic at 24 h (Thermodynamic solubility; simulated gastric fluid, pH 1 buffer)?
Answer: 30800 µg/mL

Question: What about the solubility thermodynamic at 24 h (Thermodynamic solubility; un-buffered water) of the same compound?
Answer: 17900 µg/mL

Question: What about the “solids recovered” value (Thermodynamic solubility; un-buffered water) of the same compound?
Answer: poorly crystalline free base

Question: What about the “thermodynamic solubility (in words)” value (Thermodynamic solubility; un-buffered water) of the same compound?
Answer: moderately soluble

Question: And the “material recovered after salt disproportionation study (XRPD)” value [5]?
Answer: poorly crystalline free base

Question: What about the “solid recovered from hydration screen (XRPD)” value ([6]; high water activity aw=0.919, 24 hr) of the same compound?
Answer: poorly crystalline besylate salt

Question: And the “solid recovered from hydration screen (XRPD)” value ([6]; low water activity aw=0.281, 24 hr)?
Answer: poorly crystalline besylate salt

Question: Which “changes to form or crystallinity” value ([2]; salt recovered from isopropanol) does the source give for `C[C@@H]1CCc2ncc(F)cc2[C@H]2CCCN2c2ccn3ncc(c3n2)C(=O)N1` [Compound 1 edisylate] here?
Answer: become amorphous

Question: With `C[C@@H]1CCc2ncc(F)cc2[C@H]2CCCN2c2ccn3ncc(c3n2)C(=O)N1.O=C(O)/C=C/C(=O)O` [Compound 1 fumarate] as the compound, how does the “changes to form or crystallinity” value ([2]; salt recovered from acetone) read?
Answer: a slight decrease to crystallinity however, no change to form

Question: For `C[C@@H]1CCc2ncc(F)cc2[C@H]2CCCN2c2ccn3ncc(c3n2)C(=O)N1.O=C(O)C(=O)O` [Compound 1 oxalate], which “changes to form or crystallinity” value ([2]; salt recovered from ethanol) is on record?
Answer: a change in crystallinity and form

Question: What about the “changes to form or crystallinity” value ([2]; salt recovered from methanol) of the same compound?
Answer: no change to crystallinity however, changes to form were seen

Question: For `C[C@@H]1CCc2ncc(F)cc2[C@H]2CCCN2c2ccn3ncc(c3n2)C(=O)N1.O=C(O)CCC(=O)O` [Compound 1 succinate], which “changes to form or crystallinity” value ([2]; salt recovered from acetone) is on record?
Answer: a decrease in crystallinity but no change to form

Question: Which “changes to form or crystallinity” value ([2]; salt recovered from acetone) does the source give for `C[C@@H]1CCc2ncc(F)cc2[C@H]2CCCN2c2ccn3ncc(c3n2)C(=O)N1.Cc1ccc(S(=O)(=O)O)cc1` [Compound 1 tosylate] here?
Answer: become amorphous

Question: With `C[C@@H]1CCc2ncc(F)cc2[C@H]2CCCN2c2ccn3ncc(c3n2)C(=O)N1` [Compound 1, (6R,15R)-9-fluoro-15-methyl-2,11,16,20,21,24-hexaazapentacyclo[16.5.2.0^2,6.0^7,12.0^21,25]pentacosa-1 (24),7,9,11,18(25), 19,22-heptaen-17-one] as the compound, how does the solubility ([7]; organic solvent or mixture, in 1-Propanol) read?
Answer: > 100000 µg/mL

Question: What about the solubility ([7]; organic solvent or mixture, in 2-Methyl THF) of the same compound?
Answer: < 5000 µg/mL

Question: And the solubility ([7]; organic solvent or mixture, in Cyclohexane)?
Answer: < 5000 µg/mL

Question: What about the solubility ([7]; organic solvent or mixture, in Cyclopentylmethyl ether) of the same compound?
Answer: < 5000 µg/mL

Question: What about the solubility ([7]; organic solvent or mixture, in Dichloromethane) of the same compound?
Answer: > 100000 µg/mL

Question: What about the solubility ([7]; organic solvent or mixture, in Diisopropyl ether) of the same compound?
Answer: < 5000 µg/mL

Question: And the solubility ([7]; organic solvent or mixture, in Dimethylformamide)?
Answer: > 100000 µg/mL

Question: And the solubility ([7]; organic solvent or mixture, in Ethyl acetate)?
Answer: < 5000 µg/mL

Question: And the solubility ([7]; organic solvent or mixture, in Heptane)?
Answer: < 5000 µg/mL

Question: And the solubility ([7]; organic solvent or mixture, in Isobutyl acetate)?
Answer: < 5000 µg/mL

Question: And the solubility ([7]; organic solvent or mixture, in Isopropyl acetate)?
Answer: < 5000 µg/mL

Question: And the solubility ([7]; organic solvent or mixture, in N,N-Dimethylacetamide)?
Answer: > 100000 µg/mL

Question: And the solubility ([7]; organic solvent or mixture, in N-Methylpyrrolidone)?
Answer: > 100000 µg/mL

Question: What about the solubility ([7]; organic solvent or mixture, in TBME:Heptane (60:40 v/v)) of the same compound?
Answer: < 5000 µg/mL

Question: What about the solubility ([7]; organic solvent or mixture, in TBME) of the same compound?
Answer: < 5000 µg/mL

Question: What about the solubility ([7]; organic solvent or mixture, in Toluene) of the same compound?
Answer: < 5000 µg/mL

Question: And the solubility ([7]; in Water)?
Answer: < 5000 µg/mL

Question: What about the “change in purity” value ([4]; 40° C./75% RH) of the same compound?
Answer: no change in purity

Question: And the “change to form” value ([4]; 40° C./75% RH)?
Answer: no change to form

Question: And the “average purity after 1 week stability test (UPLC)” value (from here on “average purity”) ([4]; 40° C./75% RH (relative humidity test))?
Answer: 99.2%

Question: And the “average purity” value ([4]; 80° C.)?
Answer: 99.3%

Question: What about the “change in purity” value ([4]; 80° C.) of the same compound?
Answer: no change in purity

Question: What about the “change to form” value ([4]; 80° C.) of the same compound?
Answer: no change to form

Question: And the “average purity” value ([4]; ambient light)?
Answer: 99.2%

Question: And the “change in purity” value ([4]; ambient light)?
Answer: no change in purity

Question: And the “change to form” value ([4]; ambient light)?
Answer: no change to form

Question: With `O=C(O)[C@H](O)[C@@H](O)[C@H](O)[C@H](O)CO` [D-Gluconic acid (50% in water), D-Gluconic acid] as the compound, how does the “pKa 1” value [1] read?
Answer: 3.76

Question: For `O=C[C@H](O)[C@@H](O)[C@H](O)[C@H](O)C(=O)O` [D-Glucuronic acid], which “pKa 1” value [1] is on record?
Answer: 3.18

Question: For `CCS(=O)(=O)O` [Ethane sulfonic acid], which “pKa 1” value [1] is on record?
Answer: −2.05

Question: For `O=C(O)CNC(=O)c1ccccc1` [Hippuric acid], which “pKa 1” value [1] is on record?
Answer: 3.55
